The source made the active and inactive calls. No rule for the calls is given here.

The first test addresses glutathione S-transferase (GST-GSH binding). The test is described as follows: GST–glutathione interaction disruption – biochemical, multiplex beads, flow cytometry, HPSMTB buffer, profiling panel (AID 1324).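 Also: glutathione beads loaded with GST-green fluorescent protein and no fluorescent Bim peptide.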 Conditions: multiplex bead flow cytometry, MCF. In general terms: Flow cytometry measures light scatter and fluorescence of single cells or particles in a stream.
As a reminder, the EC50 is the concentration that produces a half-maximal response. Consider `O=c1c2c(-c3ccccc3)csc2nc2c3ccccc3c(NCCN3CCOCC3)nn12`, for which the EC50 is 210 nM.

As to `Cc1ccnc(Nc2nc(-c3c(C)nc4sccn34)cs2)c1`, the EC50 entry is “inactive”.

In the case of `CN1CCN(c2ccc(N)cc2)CC1`, the EC50 entry was “inactive”.

Staying with this test, now noted: multiplex bead flow cytometry, MCF, stronger effect = higher value, concentration not given here.
Consider `O=C(CCCN1C(=O)c2cccc3cccc(c23)C1=O)N1CCN(c2ccccn2)CC1`, for which the percent span inhibition entry is “inactive”.

In the case of `O=C1c2ccccc2C(=O)N1CN(C(=O)COc1ccc(Cl)cc1Cl)c1cccc(F)c1`, the percent span inhibition result was “inactive”.

Take `COc1cc(NC(=O)c2ccc3c(c2)OCO3)ccc1NC(=O)c1ccco1`: the percent span inhibition result was “inactive”.

Regarding `Cc1ccc(-c2cc(-c3ccc(Cl)cc3)c(C#N)c(N)n2)o1`, the percent span inhibition result was “inactive”.

Regarding `COc1ccc(C)cc1Nc1ccc(C(=O)O)cc1[N+](=O)[O-]`, the percent span inhibition result was “inactive”.

Turning to `Cc1cc(-c2cc(-c3ccc(Cl)cc3)nc(N)c2C#N)co1`, the percent span inhibition entry was “inactive”.

Turning to `Cc1ccc(NS(=O)(=O)c2cc(NC(=O)c3ccc4c(c3)NC(=O)CS4)ccc2C)c(C)c1`, the percent span inhibition result is “inactive”.

On to `CCCCC(C(=O)OCC)C(N)Cc1ccc(F)cc1` (configuration not stated), for which the percent span inhibition entry was “inactive”.

For `CCN1C(=O)/C(=C\C=C2/C=CC=CN2CC)SC1=S`, the percent span inhibition result is “inactive”.

With `CCOc1ccc(C2=Nn3c(nnc3-c3ccccn3)SC2)cc1`, the percent span inhibition entry is “inactive”.

As for `N#Cc1ccc(N=c2ssnc2Cl)cc1`, the percent span inhibition result is “inactive”.

As for `Cc1cc(C)n(CC(=O)N/N=C/c2cccc([N+](=O)[O-])c2)n1`, the percent span inhibition result is “inactive”.

Turning to `CC(C)(C)c1nc(NCCN2CCOCC2)c2nnn(Cc3ccccc3Cl)c2n1`, the percent span inhibition result was “inactive”.

For the compound `C/C(=C\c1ccco1)C1Nc2cccc3cccc(c23)N1`, the percent span inhibition result is “inactive”.

Turning to `CC1CC2=C(NC(=S)NC2c2cccc(F)c2)/C(=C/c2cccc(F)c2)C1` (configuration not stated), the percent span inhibition entry is “inactive”.

As to `Cc1cc(N)ccc1N1CCCC1`, the percent span inhibition result is “inactive”.

`O=C(c1cnccn1)N(Cc1cccs1)C1(C(=O)NC2CCCCC2)CCCCC1`: the percent span inhibition entry was “inactive”.

For `Cc1cccc(C(=O)N2CCC(c3nc(-c4ccc(S(=O)(=O)N5CCOCC5)cc4)no3)CC2)c1`, the percent span inhibition result is “inactive”.

On to `CCOC(=O)c1sc(N)c(C(=O)Nc2ccccc2OC)c1C`, for which the percent span inhibition result was “inactive”.

With `S=c1[nH]cc(-c2ccccc2)n1-c1ccccc1`, the percent span inhibition result was “inactive”.

Take `N/C(Cc1ccc(Cl)c(Cl)c1)=N\OC(=O)c1cccs1`: the percent span inhibition result was “inactive”.

Take `COc1cc(/C=C2\SC(=S)NC2=O)ccc1OS(=O)(=O)c1ccccc1`: the percent span inhibition entry was “inactive”.

For `CC(=O)Nc1ccc(-n2cc(-c3ccccc3)[nH]c2=S)cc1`, the percent span inhibition entry is “inactive”.

For the compound `O=C(CCl)Nc1cccc2ncccc12`, the percent span inhibition result is “inactive”.

For the compound `COCc1cc(CN2CCCC(CNC(=O)c3ccc(F)cc3)C2)ccc1OC` (configuration not stated), the percent span inhibition entry was “inactive”.

`CCc1nnc(NS(=O)(=O)c2ccc(N=CC3=C(O)CC(C)(C)CC3=O)cc2)s1`: the percent span inhibition result was “inactive”.

With `Cc1ccc(-c2nc(N3CCOCC3)s[n+]2-c2ccccc2)cc1`, the percent span inhibition entry is “inactive”.

In the case of `Cc1cccc(N2CCN(C(=S)Nc3ccc4nc(N5CCN(C)CC5)cc(C)c4c3)CC2)c1C`, the percent span inhibition entry was “inactive”.

On to `CCSc1ncnc2sc(C)c(C)c12`, for which the percent span inhibition entry was “inactive”.

In the case of `O=C(Cn1cncc1-c1ccc([N+](=O)[O-])cc1)Nc1ccccc1F`, the percent span inhibition entry was “inactive”.

With `CCOC(=O)/C(=C\c1ccc(Cl)cc1)c1nc2sc(C)c(C)c2c(=O)[nH]1`, the percent span inhibition result is “inactive”.

Take `COc1ccc(C(=S)N2CCCCCC2)cc1`: the percent span inhibition result was “inactive”.

Take `Cc1ccc(OCC(=O)NCc2ccccn2)c(Br)c1`: the percent span inhibition result was “inactive”.

Take `COc1ccc(C2=Nn3c(nnc3-c3ccccn3)SC2)cc1OC`: the percent span inhibition result is “inactive”.

As to `NC(=O)CSc1nnc(Cn2cnc3ccccc32)o1`, the percent span inhibition result is “inactive”.

As to `CN(C(=O)NC1CCCCC1)c1ccccc1`, the percent span inhibition result was “inactive”.

`O=C(COC(=O)c1ccccn1)NC1CCCCC1`: the percent span inhibition entry was “inactive”.

With `CN=c1scc(-c2cccs2)n1/N=C/c1ccc(O)c(O)c1O`, the percent span inhibition result was “inactive”.

With `CCCOc1ccc(-c2c(C(=O)N/N=C/c3ccc(OC)cc3)nnn2-c2nonc2N)cc1`, the percent span inhibition entry is “inactive”.

For the compound `CCOC(=O)c1ccc(NC(=O)CSCCC(=O)O)cc1`, the percent span inhibition entry was “inactive”.

In the case of `O=C1C(Cl)=C(N2CCN(c3ccccc3[N+](=O)[O-])CC2)C(=O)c2ccccc21`, the percent span inhibition entry is “inactive”.

Take `Cc1cc(C)c(C)c(S(=O)(=O)N2CCN(CC(=O)NC(=O)NCc3ccccc3)CC2)c1C`: the percent span inhibition entry was “inactive”.

As for `CC[n+]1c(/C=C/C=C/N(C(C)=O)c2ccccc2)sc2ccccc21`, the percent span inhibition result was “inactive”.

For `Cc1cc(C)c2nc3nc(C)c(C)cc3c(N)c2c1`, the percent span inhibition result is “inactive”.

As for `O=C1NC(=O)C(=Cc2ccc(-c3cc(Cl)ccc3[N+](=O)[O-])o2)C(=O)N1`, the percent span inhibition result is “inactive”.

With `CCN1CCN(c2cc(C)c3cc(NC(=S)N4CCN(c5ccc(F)cc5)CC4)ccc3n2)CC1`, the percent span inhibition entry is “inactive”.

Take `O=C(COc1ccc(Br)cc1CNC1CCCCC1)NCCc1ccccc1`: the percent span inhibition result is “inactive”.

Consider `O=C(CSc1nnc(-c2ccccc2)c(-c2ccccc2)n1)N1CCc2ccccc21`, for which the percent span inhibition result is “inactive”.

As to `N#Cc1cc(-c2ccccc2)nn1-c1ccccc1`, the percent span inhibition entry was “inactive”.

For `Cc1nn(-c2ccc(Cl)cc2)c(Cl)c1/C=C(\C#N)C(N)=O`, the percent span inhibition entry is “inactive”.

Consider `COc1ccc(C)cc1-n1c(=O)c2ccccc2c2ccccc2c1=O`, for which the percent span inhibition result is “inactive”.

Turning to `Cc1cc(C)nc(SCc2cc(=O)c(OC(=O)c3cccc([N+](=O)[O-])c3)co2)n1`, the percent span inhibition entry was “inactive”.

For the compound `Cc1ccc(NC(=O)c2cc(S(=O)(=O)NCCC3=CCCCC3)ccc2F)cc1F`, the percent span inhibition result was “inactive”.

As for `Cc1ccc(S(=O)(=O)N2CCCCC2)cc1NC(=O)COC(=O)c1ccccc1F`, the percent span inhibition result was “inactive”.

`COc1ccc(-c2noc(COc3ccc4c(c3)OCO4)n2)cc1OC`: the percent span inhibition entry is “inactive”.

For the compound `CCCCOC(=O)c1nc(Cl)c(Cl)c(N)c1Cl`, the percent span inhibition result was “inactive”.

Turning to `CCOc1ccccc1NC(=O)CSc1nnc2ccc(-c3cccnc3)nn12`, the percent span inhibition entry was “inactive”.

Regarding `COc1cccc(N2CC(C(=O)Nc3nnc(SCC(=O)c4ccccc4)s3)CC2=O)c1` (configuration not stated), the percent span inhibition entry was “inactive”.

Turning to `CCOc1ccc(CNc2ccc(N3CCCC3)cc2)cc1`, the percent span inhibition entry is “inactive”.

For `Cc1ccc(-n2nc(C)c(C(=O)O)n2)c(C)c1`, the percent span inhibition entry was “inactive”.

`CCCn1c(C)cc(-c2csc(N)n2)c1C`: the percent span inhibition entry is “inactive”.

In the case of `COc1ccc(N=C2NC(=O)/C(=C\C=C\c3ccco3)S2)cc1`, the percent span inhibition result was “inactive”.

`O=C1CCc2cc(S(=O)(=O)NCCCC(=O)N3CCN(Cc4ccc5c(c4)OCO5)CC3)ccc2N1`: the percent span inhibition result was “inactive”.

On to `CCC(=O)NC(c1ccc(C)cc1)c1cc([N+](=O)[O-])c2cccnc2c1O` (configuration not stated), for which the percent span inhibition result was “inactive”.

Take `CCN(CC)c1ccc(NC(=O)c2cccc(C)c2)cc1S(=O)(=O)Nc1ccccc1OC`: the percent span inhibition result was “inactive”.

`Brc1ccc2ncnc(Nc3ccc(N4CCOCC4)cc3)c2c1`: the percent span inhibition result is “inactive”.

As for `Cc1cc(C)c2nc3nc(C)cc(C)c3c(N)c2c1`, the percent span inhibition result is “inactive”.

As for `Cc1cc(OCc2cn3cccnc3n2)ccc1Cl`, the percent span inhibition entry is “inactive”.

On to `N#C/C(=C(/O)CN1CCN(c2ccccc2F)CC1)c1nc(-c2ccccc2)cs1`, for which the percent span inhibition entry is “inactive”.

As for `Cc1cccc(NC(=S)N2CCn3cccc3C2c2cccnc2)c1` (configuration not stated), the percent span inhibition entry is “inactive”.

In the case of `O=C1C=C(Nc2ccccc2)C(=O)c2ccccc21`, the percent span inhibition result was “inactive”.

Consider `O=c1c2c(n3nnnc3n1Cc1ccccc1)-c1ccccc1CC21CCCC1`, for which the percent span inhibition entry is “inactive”.

Consider `CCn1c(C)nc2cc(C(=O)N/N=C/c3ccc(O)c(O)c3O)ccc21`, for which the percent span inhibition result is “inactive”.

With `CC(=O)Nc1ccc2nc(CN3CCN(CC(C)C)C(CCO)C3)ccc2c1` (configuration not stated), the percent span inhibition result is “inactive”.

With `COc1ccc(NC(=O)c2cc(-c3ccc(C)o3)nc3ccccc23)cc1OC`, the percent span inhibition result is “inactive”.

With `Cc1cc(N2CCN(C)CC2)nc2ccc(NC(=S)N3CCCCC3)cc12`, the percent span inhibition entry is “inactive”.

As to `CC1CC2=C(NC(=S)NC2c2ccccc2F)/C(=C/c2ccccc2F)C1` (configuration not stated), the percent span inhibition entry was “inactive”.

Take `CCN(CC)c1ccc(NC(=O)COc2ccccc2C#N)cc1S(=O)(=O)Nc1ccccc1OC`: the percent span inhibition result was “inactive”.

Take `O=C(OCC(=O)c1ccc[nH]1)c1ccccc1`: the percent span inhibition result was “inactive”.

Turning to `COc1cc2nc(=S)n(CCCN3CCOCC3)c(N)c2cc1OC`, the percent span inhibition entry was “inactive”.

For `C#CCOCCOCCOCCNc1nc(N2CCN(C(=O)[C@H]([C@@H](C)CC)n3cc([C@@H](N)CC(C)C)nn3)CC2)nc(N2CCN(C(=O)[C@H](Cc3cc4ccccc4[nH]3)n3cc([C@@H](N)Cc4ccc(O)cc4)nn3)CC2)n1`, the percent span inhibition result is “inactive”.

Regarding `COc1ccc(C(=O)NC(=S)N2CCNC(=O)C2)cc1Br`, the percent span inhibition result was “inactive”.

As to `COc1ccc(C(=O)Nc2ccc(C(=O)OCC(=O)c3cccc4ccccc34)cc2)cc1`, the percent span inhibition entry was “inactive”.

Consider `O=[N+]([O-])c1ccc(-c2cn(-c3ccc(Cl)cc3)c(=S)[nH]2)cc1`, for which the percent span inhibition entry was “inactive”.

The values are drawn from PubChem BioAssay AID1324 (NMMLSC, 2008).
